One experiment has as its system KMS.12.BM cells. The experiment is described as follows: KMS.12.BM cell viability assay (Cell Titer-GLO, ATP quantitation). Particulars: KMS.12.BM human myeloma cells, 3 days, concentration required for 50% cell death, read-out: KMS cellular IC50. Type of experiment: cell-based. The procedure: KMS.12.BM cell line (human myeloma) was purchased from JCRB (Osaka, Japan) and maintained in RPMI with 10% FBS culture medium. To measure the cytotoxic activity of the compounds through ATP quantitation, the KMS.12.BM cells are plated in the RPMI culture medium at 5000 cells/well/per 100 μL into a 96-well polystyrene clear black tissue culture plate (Greiner-bio-one through VWR, NJ), in the presence or absence of a concentration range of test compounds. After 3 days, […] Cell Titer-GLO Luminescent (Promega, Madison, Wis.) cell culture agent is added to each well for 10 minutes at room temperature to stabilize the luminescent signal. This determines the number of viable cells in culture based on quantitation of the ATP present, which signals the presence of metabolically active cells. Luminescence is measured with the Top Count 384 (Packard Bioscience through Perkin Elmer, Boston, Mass.). […] IC50 data for the Examples is presented in Table 4 as determined by Assay B1.
In general terms: In ATP-based viability assays light output follows the ATP content of the culture.

Another experiment has as its target BRD4-BD2 (Homo sapiens (Human), UniProt O60885). The experiment is described as follows: BRD4 AlphaScreen assay, BRD4-BD2. Type of experiment: binding. To be noted: biotin-labeled tetra-acetylated histone H4 peptide, 75 min, room temperature, read-out: BRD4 BD-2 enzyme IC50. The procedure, abridged: (§1)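 Bromodomain–H4Ac4 peptide (50 nM) proximity assay; BD1 at 3.8 nM, BD2 at 20 nM. Reaction 75 min RT, bead detection 75 min in the dark, IC50 by dose-response fit.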

The target in the next experiment is BRD4-BD1 (Homo sapiens (Human), UniProt O60885). The experiment is described as follows: BRD4 AlphaScreen assay, BRD4-BD1. Type of experiment: binding. To be noted: biotin-labeled tetra-acetylated histone H4 peptide, 75 min, room temperature, read-out: BRD4 BD-1 enzyme IC50. A digest of the protocol: as §1

8 compounds from patent US9777003B2, “Tricyclic heterocycles as bet protein inhibitors” (Incyte Corporation, priority 2013, dated 2017) can be followed below.

pIC50: −log10 of the molar value. Structures can show the parent of a compound that is named as a salt. Where two headings read alike, the source gives them in different places.

Turning to `Cc1cc2c(cc(N[C@@H]3CCN(C)[C@H](C)C3)c3nnc(C)n32)n1Cc1ccccc1` (mixture of isomers) [Example 224, 6-Benzyl-N-[(2S,4S)-1,2-dimethylpiperidin-4-yl]-1,7-dimethyl-6H-pyrrolo[2,3-e][1,2,4]triazolo[4,3-a]pyridin-4-amine and 6-Benzyl-N-[(2R,4R)-1,2-dimethylpiperidin-4-yl]-1,7-dimethyl-6H-pyrrolo[2,3-e][1,2,4]triazolo[4,3-a]pyridin-4-amine], the pIC50 in the experiment on KMS.12.BM cells was no less than 6.00.

For `Cc1nnc2ccc3c(cc(-c4cc[nH]n4)n3Cc3cccc(CN4CCC4)c3)n12` [Example 182, 6-[3-(Azetidin-1-ylmethyl)benzyl]-1-methyl-7-(1H-pyrazol-3-yl)-6H-pyrrolo[2,3-e][1,2,4]triazolo[4,3-a]pyridine tris(trifluoroacetate) Salt], the pIC50 is no less than 7.00 at BRD4-BD2, no less than 6.00 with KMS.12.BM cells (72 h) and no less than 7.00 on BRD4-BD1.

`CCCC(=O)Nc1cc2c(cc(C)n2Cc2ccccc2)n2c(C)nnc12` [Example 267, N-(6-Benzyl-1,7-dimethyl-6H-pyrrolo[2,3-e][1,2,4]triazolo[4,3-a]pyridin-4-yl)butyramide]: the figures for the pIC50 at BRD4-BD2 and at BRD4-BD1 were no less than 7.00 and 6.00 to 7.00, respectively.

With `CCC(=O)Nc1cc2c(cc(C)n2Cc2ccccc2)n2c(C)nnc12` [Example 268, N-(6-Benzyl-1,7-dimethyl-6H-pyrrolo[2,3-e][1,2,4]triazolo[4,3-a]pyridin-4-yl)propionamide], the pIC50 at BRD4-BD2 and on BRD4-BD1 was no less than 7.00 throughout.

Turning to `Cc1cc2c(cc(NC(=O)C3CC3)c3nnc(C)n32)n1Cc1ccccc1` [Example 269, N-(6-Benzyl-1,7-dimethyl-6H-pyrrolo[2,3-e][1,2,4]triazolo[4,3-a]pyridin-4-yl)cyclopropanecarboxamide], the pIC50 at BRD4-BD2 and on BRD4-BD1 was no less than 7.00 in each case.

For the compound `Cc1cc2c(cc(NC(=O)C(C)C)c3nnc(C)n32)n1Cc1ccccc1` [Example 270, N-(6-Benzyl-1,7-dimethyl-6H-pyrrolo[2,3-e][1,2,4]triazolo[4,3-a]pyridin-4-yl)isobutyramide], the pIC50 on BRD4-BD2 and on BRD4-BD1 was no less than 7.00 each time.

With `Cc1cc2c(cc(NS(C)(=O)=O)c3nnc(C)n32)n1Cc1ccccc1` [Example 271, N-(6-Benzyl-1,7-dimethyl-6H-pyrrolo[2,3-e][1,2,4]triazolo[4,3-a]pyridin-4-yl)methanesulfonamide], the pIC50 on BRD4-BD2 was no less than 7.00; at BRD4-BD1, 6.00 to 7.00.

For the compound `COC(=O)Nc1cc2c(cc(C)n2Cc2ccccc2)n2c(C)nnc12` [Example 272, Methyl 6-benzyl-1,7-dimethyl-6H-pyrrolo[2,3-e][1,2,4]triazolo[4,3-a]pyridin-4-ylcarbamate], the pIC50 on BRD4-BD2 and on BRD4-BD1 was no less than 7.00 throughout.

By pIC50 is commonly meant the IC50 on a negative log10 scale, so that one unit is a factor of ten.
